Measured values published in PubChem BioAssay AID330 (DTP/NCI, 2004).
Values joined by “and” are separate entries in the source; they are usually repeats but may differ in a detail not shown here. Equal values may be shown once. Inconclusive results and toxic doses are left out. How the source made its calls: active means survival T/C of 150% or more; inactive means T/C below 125% in these data. Peptide text beside a SMILES is read from it.

Test system: P388 leukemia ip, CD2F1 mice, survival T/C
Experiment: NCI In Vivo Anticancer Drug Screen. Data for tumor model P388 Leukemia (intraperitoneal) in CD2F1 (CDF1) mice
Details: endpoint: median survival time, higher = longer survival
In short: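 Mice carrying the transplanted tumor received test compound or vehicle. Survival was recorded in each group, and the value is the treated-group measurement divided by that of the vehicle-treated control group.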

[1] = dose: 50.0 mg/kg/injection, schedule: Q01DX009 (ip), vehicle: saline
[2] = dose: 100.0 mg/kg/injection, schedule: Q01DX009 (ip), vehicle: saline
[3] = dose: 200.0 mg/kg/injection, schedule: Q01DX009 (ip), vehicle: saline
[4] = dose: 100.0 mg/kg/injection, schedule: Q01DX009 (ip), vehicle: saline with Tween-80
[5] = dose: 200.0 mg/kg/injection, schedule: Q01DX009 (ip), vehicle: saline with Tween-80
[6] = dose: 400.0 mg/kg/injection, schedule: Q01DX009 (ip), vehicle: saline with Tween-80
[7] = dose: 60.0 mg/kg/injection, schedule: Q01DX005 (ip), vehicle: Klucel (hydroxypropylcellulose) (HPC)
[8] = dose: 120.0 mg/kg/injection, schedule: Q01DX005 (ip), vehicle: Klucel (hydroxypropylcellulose) (HPC)
[9] = dose: 240.0 mg/kg/injection, schedule: Q01DX005 (ip), vehicle: Klucel (hydroxypropylcellulose) (HPC)
[10] = dose: 50.0 mg/kg/injection, schedule: Q01DX009 (ip), vehicle: Klucel (hydroxypropylcellulose) (HPC)
[11] = dose: 100.0 mg/kg/injection, schedule: Q01DX009 (ip), vehicle: Klucel (hydroxypropylcellulose) (HPC)
[12] = dose: 100.0 mg/kg/injection, schedule: Q04DX002 (ip), vehicle: saline with Tween-80
[13] = dose: 200.0 mg/kg/injection, schedule: Q04DX002 (ip), vehicle: saline with Tween-80
[14] = dose: 400.0 mg/kg/injection, schedule: Q04DX002 (ip), vehicle: saline with Tween-80
[15] = dose: 60.0 mg/kg/injection, schedule: Q01DX005 (ip), vehicle: saline with Tween-80
[16] = dose: 120.0 mg/kg/injection, schedule: Q01DX005 (ip), vehicle: saline with Tween-80
[17] = dose: 50.0 mg/kg/injection, schedule: Q01DX005 (ip), vehicle: saline with Tween-80
[18] = dose: 100.0 mg/kg/injection, schedule: Q01DX005 (ip), vehicle: saline with Tween-80
[19] = dose: 200.0 mg/kg/injection, schedule: Q01DX005 (ip), vehicle: saline with Tween-80
[20] = dose: 50.0 mg/kg/injection, schedule: Q01DX005 (ip), vehicle: saline
[21] = dose: 100.0 mg/kg/injection, schedule: Q01DX005 (ip), vehicle: saline
[22] = dose: 100.0 mg/kg/injection, schedule: Q04DX002 (ip), vehicle: Klucel (hydroxypropylcellulose) (HPC)
[23] = dose: 200.0 mg/kg/injection, schedule: Q04DX002 (ip), vehicle: Klucel (hydroxypropylcellulose) (HPC)
[24] = dose: 400.0 mg/kg/injection, schedule: Q04DX002 (ip), vehicle: Klucel (hydroxypropylcellulose) (HPC)
[25] = dose: 200.0 mg/kg/injection, schedule: Q01DX005 (ip), vehicle: saline
[26] = dose: 100.0 mg/kg/injection, schedule: Q04DX003 (ip), vehicle: Klucel (hydroxypropylcellulose) (HPC)
[27] = dose: 400.0 mg/kg/injection, schedule: Q04DX003 (ip), vehicle: Klucel (hydroxypropylcellulose) (HPC)

Measured: T/C

O=C1OCc2c1cc1n(c2=O)Cc2cc3ccccc3nc2-1
inactive: dose: 1.0 mg/kg/injection, schedule: Q01DX009 (ip), vehicle: saline with Tween-80 99 % of control and 114 % of control and 115 % of control | dose: 2.0 mg/kg/injection, schedule: Q01DX009 (ip), vehicle: saline with Tween-80 105 % of control

CCOC(=O)NCCCCC(N)C(=O)O (stereo not given)
inactive: [1] 97 % of control | [2] 102 % of control | [3] 102 % of control

COC(=O)CCC(=O)N(C)CCc1c[nH]c2ccccc12
inactive: [4] 90 % of control | [5] 90 % of control | [6] 90 % of control

CC1CC(=O)NN1 (stereo not given)
inactive: [7] 100 % of control | [8] 101 % of control | [9] 107 % of control

C=CC(=O)CC1(C(=O)OC)NC(=S)NC(=O)C1C#N (stereo not given)
inactive: [7] 102 % of control | [8] 102 % of control | [9] 98 % of control

OCc1ncccc1O
inactive: dose: 25.0 mg/kg/injection, schedule: Q01DX009 (ip), vehicle: saline 99 % of control and 109 % of control | [1] 108 % of control and 100 % of control and 106 % of control | [2] 90 % of control and 102 % of control and 104 % of control | [3] 110 % of control and 111 % of control and 97 % of control

C=CCn1c(=O)c2[nH]c(Cl)nc2n(CC=C)c1=O
inactive: dose: 25.0 mg/kg/injection, schedule: Q01DX009 (ip), vehicle: Klucel (hydroxypropylcellulose) (HPC) 105 % of control | [10] 100 % of control | [11] 108 % of control

O=C(Oc1ccccc1)C1CC2(C1)CC(C(=O)Oc1ccccc1)C2 (stereo not given)
inactive: [12] 101 % of control | [13] 99 % of control | [14] 99 % of control

O=S(=O)(c1ccc(NC(=S)NCc2ccco2)cc1)N1CCCCC1
inactive: [10] 88 % of control | [11] 93 % of control | dose: 200.0 mg/kg/injection, schedule: Q01DX009 (ip), vehicle: Klucel (hydroxypropylcellulose) (HPC) 92 % of control

CC(=O)C1=C(C)NC(C)=C(C(C)=O)C1c1ccccc1
inactive: [4] 100 % of control | [5] 100 % of control | [6] 90 % of control

Cc1ccc2nc(C)cc(N=[N+]=[N-])c2c1
inactive: [15] 95 % of control | [16] 89 % of control

COC(=O)C1O[C@H]1c1cccc[n+]1[O-] (mixture of isomers)
inactive: dose: 25.0 mg/kg/injection, schedule: Q01DX005 (ip), vehicle: water 102 % of control | dose: 50.0 mg/kg/injection, schedule: Q01DX005 (ip), vehicle: water 101 % of control | dose: 100.0 mg/kg/injection, schedule: Q01DX005 (ip), vehicle: water 101 % of control | dose: 200.0 mg/kg/injection, schedule: Q01DX005 (ip), vehicle: water 103 % of control

CNC1Cc2c[nH]c3cccc(c23)C12C=C(C)C(=O)O2 (stereo not given)
inactive: dose: 75.0 mg/kg/injection, schedule: Q01DX009 (ip), vehicle: saline with Tween-80 120 % of control and 115 % of control | dose: 150.0 mg/kg/injection, schedule: Q01DX009 (ip), vehicle: saline with Tween-80 120 % of control and 115 % of control | dose: 300.0 mg/kg/injection, schedule: Q01DX009 (ip), vehicle: saline with Tween-80 120 % of control

OCC1OC(n2ccn(C3OC(CO)C(O)C3O)c2=S)C(O)C1O (stereo not given)
inactive: dose: 25.0 mg/kg/injection, schedule: Q04DX003 (ip), vehicle: water 103 % of control | dose: 50.0 mg/kg/injection, schedule: Q04DX003 (ip), vehicle: water 111 % of control | dose: 100.0 mg/kg/injection, schedule: Q04DX003 (ip), vehicle: water 111 % of control | dose: 200.0 mg/kg/injection, schedule: Q04DX003 (ip), vehicle: water 112 % of control | dose: 400.0 mg/kg/injection, schedule: Q04DX003 (ip), vehicle: water 111 % of control

CC(=O)Nc1cc2c(cc1Br)-c1ccccc1C2O (stereo not given)
inactive: dose: 0.63 mg/kg/injection, schedule: Q01DX009 (ip), vehicle: saline with Tween-80 100 % of control | dose: 1.25 mg/kg/injection, schedule: Q01DX009 (ip), vehicle: saline with Tween-80 109 % of control | dose: 2.5 mg/kg/injection, schedule: Q01DX009 (ip), vehicle: saline with Tween-80 109 % of control | dose: 5.0 mg/kg/injection, schedule: Q04DX003 (ip), vehicle: saline with Tween-80 90 % of control | dose: 10.0 mg/kg/injection, schedule: Q04DX003 (ip), vehicle: saline with Tween-80 104 % of control | dose: 20.0 mg/kg/injection, schedule: Q01DX009 (ip), vehicle: saline with Tween-80 90 % of control | dose: 20.0 mg/kg/injection, schedule: Q04DX003 (ip), vehicle: saline with Tween-80 100 % of control

CCOC(=O)C1=C(c2ccco2)NN=C(c2ccccc2)C1
inactive: [17] 101 % of control | [18] 103 % of control | [19] 94 % of control

O=[N+]([O-])c1ccc(C2CC3COc4ccccc4C3=N2)cc1 (stereo not given)
inactive: dose: 18.75 mg/kg/injection, schedule: Q01DX001 (ip), vehicle: Klucel (hydroxypropylcellulose) (HPC) 88 % of control | dose: 37.5 mg/kg/injection, schedule: Q01DX001 (ip), vehicle: Klucel (hydroxypropylcellulose) (HPC) 88 % of control | dose: 75.0 mg/kg/injection, schedule: Q01DX001 (ip), vehicle: Klucel (hydroxypropylcellulose) (HPC) 94 % of control

CCCC(C)N(CC)CCNc1cc(OC)cc2cccnc12 (stereo not given)
inactive: [20] 106 % of control | [21] 88 % of control

N#CC(CCCCl)(c1ccccc1)c1ccccc1
inactive: [22] 107 % of control | [23] 108 % of control | [24] 108 % of control

NCCCCC(NC(=O)C(N)CCCN=C(N)N)C(=O)O (stereo not drawn) (H-Arg-Lys-OH; configuration not given here)
inactive: [20] 94 % of control | [21] 106 % of control | [25] 100 % of control

C[N+](C)(C)CCC[N+]1(C)CC2CCCCC2C1 (stereo not given)
inactive: [20] 107 % of control | [21] 98 % of control | [25] 101 % of control

CSC(=NC(=O)c1c(Cl)cccc1Cl)SC
inactive: [15] 102 % of control | [16] 100 % of control | dose: 240.0 mg/kg/injection, schedule: Q01DX005 (ip), vehicle: saline with Tween-80 90 % of control

NC1=NN(S(=O)(=O)c2ccc(Br)cc2)CC1
inactive: dose: 50.0 mg/kg/injection, schedule: Q01DX005 (ip), vehicle: Klucel (hydroxypropylcellulose) (HPC) 89 % of control | dose: 100.0 mg/kg/injection, schedule: Q01DX005 (ip), vehicle: Klucel (hydroxypropylcellulose) (HPC) 94 % of control | dose: 200.0 mg/kg/injection, schedule: Q01DX005 (ip), vehicle: Klucel (hydroxypropylcellulose) (HPC) 89 % of control

C/C(=N\NC(=S)Nc1cccc2cccc(S(=O)(=O)O)c12)c1ccccn1
inactive: [17] 102 % of control | [18] 100 % of control | [19] 112 % of control

CCN(CC)C1=NS(=O)(=O)c2ccccc2C(c2ccccc2)=C1C
inactive: dose: 25.0 mg/kg/injection, schedule: Q04DX003 (ip), vehicle: Klucel (hydroxypropylcellulose) (HPC) 99 % of control | dose: 50.0 mg/kg/injection, schedule: Q04DX003 (ip), vehicle: Klucel (hydroxypropylcellulose) (HPC) 99 % of control | [26] 100 % of control and 95 % of control | [27] 87 % of control

O=C(c1ccccc1)C(c1ccccc1)n1ncc2c1CCC2 (stereo not given)
inactive: [26] 105 % of control | dose: 200.0 mg/kg/injection, schedule: Q04DX003 (ip), vehicle: Klucel (hydroxypropylcellulose) (HPC) 100 % of control | [27] 103 % of control

O=C1/C(=C/N2CCN(c3ccccc3)CC2)Cc2c(Cl)cccc21
inactive: [22] 105 % of control | [23] 114 % of control | [24] 102 % of control

CCOC(=O)/C(O)=C/C1=CC(=O)CC(C)(C)C1
inactive: [12] 110 % of control | [13] 114 % of control | [14] 103 % of control
